Test results reported in patent US7763662B2, “Use of C2-substituted indan-1-ol systems for preparing medicaments for the prophylaxis or treatment of obesity” (Sanofi-Aventis Deutschland GmbH, priority 2001, dated 2010).

Legend:
female NMRI mice = experiment: Anorectic action: cumulative evaporated milk consumption after 24 h feed removal; assay type: in vivo; settings: ip or po (route not specified), N=5; for Reduction in cumulative milk consumption as % of the control: compared with vehicle-treated control animals; for cumulative milk consumption by treated animals: milk offered 30 min after administration, monitored for 7 hours
Procedure: The activity of the compounds was assayed as follows:
The anorectic action was tested on female NMRI mice. After removal of feed for 24 hours, the preparation to be tested was administered intraperitoneally (ip) or by gavage (po). The animals were housed singly and, with free access to drinking water, they were offered evaporated milk 30 minutes after administration of the preparation. The consumption of evaporated milk was determined and the general behavior of the animals was monitored every half an hour for 7 hours. The measured milk consumption was compared to that of vehicle-treated control animals.

melting point [°C]	SMILES	Reduction in cumulative milk consumption as % of the control (female NMRI mice; dose 20 mg/kg)	cumulative milk consumption by treated animals (female NMRI mice; dose 20 mg/kg)	Reduction in cumulative milk consumption as % of the control (female NMRI mice; dose 50 mg/kg)	cumulative milk consumption by treated animals (female NMRI mice; dose 50 mg/kg)
197.1	CSC1Cc2cc(Cl)ccc2C1O (stereo not shown) (hydrate or solvate) [Example 4, 5-Chloro-2-methylsulfanylindan-1-ol]				
163	CS(=O)(=O)C1Cc2cc(Cl)ccc2C1O (stereo not shown) [Example 1, 5-Chloro-2-methylsulfonylindan-1-ol]	50 % of the control	5/1.94 ml		
145	CCS(=O)(=O)C1Cc2cc(Cl)ccc2C1O (stereo not shown) [Example 3, 5-Chloro-2-ethanesulfonylindan-1-ol]				
	CSC1Cc2cc(Cl)ccc2C1O (stereo not shown) [Example 4, 5-Chloro-2-methylsulfanylindan-1-ol]			85 % of the control	5/0.70 ml
